Holding throughout (test): Kinobeads competition binding, HL60 cell lysate
Parameters in all cases: endogenous in cells; host or cells: HL60
Common to all, as to details: 10 μM free compound

The target of one test is IRAK3 (Homo sapiens, UniProt Q9Y616). How it is done:
(§1) To one aliquot of cell lysate 10 μM of the free compound (FIG. 3, CZC31326) was added and allowed to bind to proteins in the lysate. Then the affinity matrix with the immobilized compound (Example 1) was added to capture proteins that were not interacting with the previously added free compound. Beads were separated from the lysate and bead bound proteins were eluted in SDS sample buffer and subsequently separated by SDS-Polyacrylamide gel electrophoresis (FIG. 4). Suitable gel bands were cut out and subjected to in-gel proteolytic digestion with trypsin. The second lysate aliquot was processed identically, however no free compound was added (DMSO solvent control). Peptides originating from samples 1 and 2 were labeled with iTRAQ reagents (iTRAQ 114 and iTRAQ 117) and the combined samples were analyzed with a nano-flow liquid chromatography system coupled online to a tandem mass spectrometer (LC-MS/MS) experiment followed by iTRAQ reporter ion quantification in the MS/MS spectra (Ross et al., 2004. Mol. Cell. Proteomics 3(12):1154-1169). Further experimental protocols can be found in WO2006/134056 and a previous publication (Bantscheff et al., 2007. Nature Biotechnology 25, 1035-1044). Sepharose-beads with the immobilized compound (100 μl beads per pull-down experiment) were equilibrated in lysis buffer and incubated with a cell lysate sample containing 50 mg of protein on an end-over-end shaker (Roto Shake Genie, Scientific Industries Inc.) for 2 hours at 4° C. Beads were collected, transferred to Mobicol-columns (MoBiTech 10055) and washed with 10 ml lysis buffer containing 0.4% NP40 detergent, followed by 5 ml lysis buffer containing 0.2% detergent. To elute bound proteins, 60 μl 2×SDS sample buffer was added to the column. The column was incubated for 30 minutes at 50° C. and the eluate was transferred to a siliconized microfuge tube by centrifugation. Proteins were then alkylated with 108 mM iodoacetamid. Proteins were then separated by SDS-Polyacrylamide electrophoresis (SDS-PAGE). The peptide extracts of samples treated with 10 μM of free compound (CZC31326) and the solvent control (0.5% DMSO) were treated with different variants of the isobaric tagging reagent (iTRAQ Reagents Multiplex Kit, part number 4352135, Applied Biosystems, Foster City, Calif., USA). The iTRAQ reagents are a set of multiplexed, amine-specific, stable isotope reagents that can label peptides on amino groups in up to four different biological samples enabling simultaneous identification and quantitation of peptides. The iTRAQ reagents were used according to instructions provided by the manufacturer. The samples were resuspended in 10 μl 50 mM TEAB solution, pH 8.5 and 10 μl ethanol were added. The iTRAQ reagent was dissolved in 120 μl ethanol and 10 μl of reagent solution were added to the sample. The labeling reaction was performed at room temperature for one hour on a horizontal shaker and stopped by adding 5 μl of 100 mM TEAB and 100 mM glycine in water. The two labeled sampled were then combined, dried in a vacuum centrifuge and resuspended in 10 μl of 0.1% formic acid in water. Relative protein quantitation was performed using peak areas of iTRAQ reporter ion signals essentially as described in an earlier publication (Bantscheff et al., 2007. Nature Biotechnology 25, 1035-1044).

The next test concerns the target MPSK1 (Homo sapiens, UniProt O75716). How it is done: as §1
Another test deals with MSK2 (Homo sapiens, UniProt O75676). How it is done: as §1
Sequence of MSK2 (O75676 whole entry): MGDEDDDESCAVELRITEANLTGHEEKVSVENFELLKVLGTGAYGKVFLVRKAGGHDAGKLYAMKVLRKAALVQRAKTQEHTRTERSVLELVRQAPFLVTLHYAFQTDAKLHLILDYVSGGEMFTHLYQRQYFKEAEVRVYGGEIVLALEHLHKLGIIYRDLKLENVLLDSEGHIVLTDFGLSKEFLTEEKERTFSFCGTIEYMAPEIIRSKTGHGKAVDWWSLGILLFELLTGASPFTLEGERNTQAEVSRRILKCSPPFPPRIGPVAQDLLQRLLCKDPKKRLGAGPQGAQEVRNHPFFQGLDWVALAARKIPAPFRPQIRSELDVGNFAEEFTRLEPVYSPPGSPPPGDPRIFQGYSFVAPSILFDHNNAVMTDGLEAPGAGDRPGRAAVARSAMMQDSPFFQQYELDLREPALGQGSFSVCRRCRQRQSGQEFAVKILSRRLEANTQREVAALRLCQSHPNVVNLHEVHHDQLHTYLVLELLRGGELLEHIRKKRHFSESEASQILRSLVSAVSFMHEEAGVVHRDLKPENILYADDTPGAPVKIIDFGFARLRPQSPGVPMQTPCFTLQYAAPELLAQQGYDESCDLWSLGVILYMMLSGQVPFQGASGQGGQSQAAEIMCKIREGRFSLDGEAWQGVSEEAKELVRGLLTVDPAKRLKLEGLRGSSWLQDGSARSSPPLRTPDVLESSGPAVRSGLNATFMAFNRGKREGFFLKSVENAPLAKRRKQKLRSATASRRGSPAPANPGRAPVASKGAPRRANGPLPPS
The target in the next test is PKN1 (Homo sapiens, UniProt Q16512). How it is done: as §1
Sequence of PKN1 (Q16512 whole entry): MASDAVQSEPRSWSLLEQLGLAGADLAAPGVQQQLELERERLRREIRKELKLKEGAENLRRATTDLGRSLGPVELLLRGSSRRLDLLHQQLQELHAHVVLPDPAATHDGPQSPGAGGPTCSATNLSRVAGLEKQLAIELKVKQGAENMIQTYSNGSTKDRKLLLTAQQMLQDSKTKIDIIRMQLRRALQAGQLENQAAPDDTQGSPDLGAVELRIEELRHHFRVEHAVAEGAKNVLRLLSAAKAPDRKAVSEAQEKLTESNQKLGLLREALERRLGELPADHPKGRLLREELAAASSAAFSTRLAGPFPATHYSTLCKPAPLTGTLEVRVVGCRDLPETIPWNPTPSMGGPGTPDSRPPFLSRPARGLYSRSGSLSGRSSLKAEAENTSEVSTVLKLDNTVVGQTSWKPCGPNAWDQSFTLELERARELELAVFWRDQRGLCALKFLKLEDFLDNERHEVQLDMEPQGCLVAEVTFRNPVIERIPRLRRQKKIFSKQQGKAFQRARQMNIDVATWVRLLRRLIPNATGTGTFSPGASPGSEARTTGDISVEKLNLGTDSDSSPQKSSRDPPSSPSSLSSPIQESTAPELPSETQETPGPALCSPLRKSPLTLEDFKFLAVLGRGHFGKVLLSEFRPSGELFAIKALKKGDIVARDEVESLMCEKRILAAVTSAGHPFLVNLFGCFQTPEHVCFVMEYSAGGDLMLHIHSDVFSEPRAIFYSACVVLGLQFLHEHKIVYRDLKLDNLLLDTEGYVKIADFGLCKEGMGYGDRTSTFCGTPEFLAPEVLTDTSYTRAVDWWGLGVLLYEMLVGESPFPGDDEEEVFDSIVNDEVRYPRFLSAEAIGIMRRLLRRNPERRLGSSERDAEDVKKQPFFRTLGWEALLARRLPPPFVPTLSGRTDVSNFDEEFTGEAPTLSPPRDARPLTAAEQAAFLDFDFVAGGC
The next test addresses T1, TAO3 (Homo sapiens, UniProt Q9H2K8).
T1 sequence (Q9H2K8 1-898): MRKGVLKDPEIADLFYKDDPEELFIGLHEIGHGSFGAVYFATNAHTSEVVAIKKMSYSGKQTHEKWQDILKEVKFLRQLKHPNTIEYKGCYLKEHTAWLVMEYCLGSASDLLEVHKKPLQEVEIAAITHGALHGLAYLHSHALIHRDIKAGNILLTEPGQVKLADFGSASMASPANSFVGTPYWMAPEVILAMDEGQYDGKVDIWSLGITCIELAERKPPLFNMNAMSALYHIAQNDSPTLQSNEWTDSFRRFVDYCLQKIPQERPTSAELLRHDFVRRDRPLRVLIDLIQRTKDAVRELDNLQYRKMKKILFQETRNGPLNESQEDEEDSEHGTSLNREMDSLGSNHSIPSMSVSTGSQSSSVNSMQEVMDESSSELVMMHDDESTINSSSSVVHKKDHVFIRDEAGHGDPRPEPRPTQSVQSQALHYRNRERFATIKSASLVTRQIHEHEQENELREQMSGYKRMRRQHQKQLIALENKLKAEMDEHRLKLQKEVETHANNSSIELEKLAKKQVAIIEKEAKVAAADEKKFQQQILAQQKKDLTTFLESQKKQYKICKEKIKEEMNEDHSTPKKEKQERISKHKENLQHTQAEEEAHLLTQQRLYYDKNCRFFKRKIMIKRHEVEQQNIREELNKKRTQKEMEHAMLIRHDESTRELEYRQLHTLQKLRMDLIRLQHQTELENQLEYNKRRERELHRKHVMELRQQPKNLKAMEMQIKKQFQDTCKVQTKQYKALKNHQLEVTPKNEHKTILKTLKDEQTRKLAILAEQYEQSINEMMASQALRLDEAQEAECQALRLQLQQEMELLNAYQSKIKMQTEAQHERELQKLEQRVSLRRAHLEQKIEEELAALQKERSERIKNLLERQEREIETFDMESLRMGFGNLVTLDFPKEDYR
The protocol:
as §1

The structures appear in SMILES notation.

Sequence of MPSK1 (O75716 whole entry): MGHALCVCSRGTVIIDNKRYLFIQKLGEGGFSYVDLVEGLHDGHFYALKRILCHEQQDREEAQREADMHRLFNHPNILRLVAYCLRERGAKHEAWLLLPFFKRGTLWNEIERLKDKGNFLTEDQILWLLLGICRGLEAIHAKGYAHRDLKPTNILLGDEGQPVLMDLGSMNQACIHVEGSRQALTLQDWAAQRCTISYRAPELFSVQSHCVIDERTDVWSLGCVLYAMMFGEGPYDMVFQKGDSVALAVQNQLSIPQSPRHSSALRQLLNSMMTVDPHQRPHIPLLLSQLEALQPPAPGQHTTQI
Sequence of IRAK3 (Q9Y616 whole entry): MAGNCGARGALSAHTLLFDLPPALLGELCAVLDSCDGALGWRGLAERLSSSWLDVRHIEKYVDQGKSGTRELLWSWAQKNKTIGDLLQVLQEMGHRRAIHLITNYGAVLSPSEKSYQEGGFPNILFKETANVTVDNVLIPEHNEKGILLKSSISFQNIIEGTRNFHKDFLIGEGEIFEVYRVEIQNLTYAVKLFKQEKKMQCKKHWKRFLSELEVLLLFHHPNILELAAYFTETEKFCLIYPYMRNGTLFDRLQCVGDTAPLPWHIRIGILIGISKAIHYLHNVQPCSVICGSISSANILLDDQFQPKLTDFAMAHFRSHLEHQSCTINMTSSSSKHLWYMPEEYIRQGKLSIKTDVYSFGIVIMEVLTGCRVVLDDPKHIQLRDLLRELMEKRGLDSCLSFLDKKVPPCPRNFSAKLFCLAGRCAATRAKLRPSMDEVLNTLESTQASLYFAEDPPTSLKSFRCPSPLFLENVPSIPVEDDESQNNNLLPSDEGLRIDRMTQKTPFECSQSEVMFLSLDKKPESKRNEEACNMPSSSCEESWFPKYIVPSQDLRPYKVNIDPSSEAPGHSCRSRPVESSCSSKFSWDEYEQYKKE

`CS(=O)(=O)Nc1ccccc1Nc1nc(Nc2cccc(OCCN)c2)ncc1Cl` [CZC31326, N-(2-(2-(3-(2-aminoethoxy)phenylamino)-5-chloropyrimidin-4-ylamino)phenyl)methanesulfonamide]: the inhibition at 10 µM on IRAK3 came out at 97.2%; on MPSK1, 93.4%; at MSK2, 96.8%; at PKN1 it was 97%; at TAO3, 98%.
